Assay results: ChEMBL document CHEMBL3621159, “Discovery of an orally active subtype-selective HDAC inhibitor, chidamide, as an epigenetic modulator for cancer treatment” (Medchemcomm, 2014)

How the values were obtained:
[1] = Cmax in patient at 32.5 mg, po administered as single dose; assay type: ADME, organism-based; set-up: dose 32.5 mg, route oral; settings: human, in vivo
[2] = AUC in patient at 32.5 mg, po administered as single dose; assay type: ADME, organism-based; settings: human, in vivo
[3] = Cytotoxicity against human solid tumor cells assessed as growth inhibition; assay type: functional
[4] = Cytotoxicity against human hematopoietic malignant cells assessed as growth inhibition; assay type: functional
[5] = Half life in patient at 25 to 50 mg, administered as single dose; assay type: ADME, organism-based; settings: human, in vivo

Cmax [1]: 312 nM
AUC [2]: 2.24 µM·h
half-life [5]: 1440 min
Compound: Nc1cc(F)ccc1NC(=O)c1ccc(CNC(=O)/C=C/c2cccnc2)cc1 [TUCIDINOSTAT]
GI50 [3]: 6.65 µM
GI50 [4]: 1860 nM
